Data: ChEMBL document CHEMBL4311998, “Design, synthesis and biological evaluation of curcumin analogues as novel LSD1 inhibitors” (Bioorg Med Chem Lett, 2019)

Columns and labels:
[1] = biological target: Lysine-specific histone demethylase 1A (Homo sapiens, UniProt O60341); assay: Inhibition of human recombinant LSD1 using fluorogenic ADHP as substrate preincubated for 30 mins followed by substrate addition measured after 10 mins by fluorescence assay
U-87 MG = assay: Antiproliferative activity against human U87MG cells assessed as reduction in cell viability measured after 72 hrs by MTT assay
A549 = assay: Antiproliferative activity against human A549 cells overexpressing LSD1 assessed as reduction in cell viability measured after 72 hrs by MTT assay; details: A549, 72 h
[2] = biological target: T1, Amine oxidase [flavin-containing] B (Homo sapiens, UniProt P27338); assay: Inhibition of human recombinant MAO-B expressed in baculovirus infected BTI cells using luciferin derived luminogenic substrate measured after 20 mins by luminescence assay
T1 sequence (P27338 whole entry): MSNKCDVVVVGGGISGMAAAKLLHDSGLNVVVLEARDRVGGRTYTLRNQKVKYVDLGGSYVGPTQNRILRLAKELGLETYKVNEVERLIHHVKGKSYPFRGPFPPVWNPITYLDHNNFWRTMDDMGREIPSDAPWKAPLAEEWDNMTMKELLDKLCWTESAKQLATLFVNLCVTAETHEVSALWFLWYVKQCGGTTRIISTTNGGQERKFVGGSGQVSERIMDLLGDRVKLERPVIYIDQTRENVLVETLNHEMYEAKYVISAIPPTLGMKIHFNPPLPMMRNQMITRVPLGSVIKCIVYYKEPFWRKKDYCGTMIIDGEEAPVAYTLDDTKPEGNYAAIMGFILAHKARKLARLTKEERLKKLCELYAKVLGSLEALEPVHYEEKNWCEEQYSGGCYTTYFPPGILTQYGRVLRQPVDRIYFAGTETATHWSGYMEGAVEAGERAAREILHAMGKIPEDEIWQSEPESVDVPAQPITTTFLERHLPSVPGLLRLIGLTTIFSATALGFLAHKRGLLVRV

[3] = biological target: T2, Amine oxidase [flavin-containing] A (Homo sapiens, UniProt P21397); assay: Inhibition of human recombinant MAO-A expressed in baculovirus infected BTI cells using luciferin derived luminogenic substrate measured after 20 mins by luminescence assay
T2 sequence (P21397 whole entry): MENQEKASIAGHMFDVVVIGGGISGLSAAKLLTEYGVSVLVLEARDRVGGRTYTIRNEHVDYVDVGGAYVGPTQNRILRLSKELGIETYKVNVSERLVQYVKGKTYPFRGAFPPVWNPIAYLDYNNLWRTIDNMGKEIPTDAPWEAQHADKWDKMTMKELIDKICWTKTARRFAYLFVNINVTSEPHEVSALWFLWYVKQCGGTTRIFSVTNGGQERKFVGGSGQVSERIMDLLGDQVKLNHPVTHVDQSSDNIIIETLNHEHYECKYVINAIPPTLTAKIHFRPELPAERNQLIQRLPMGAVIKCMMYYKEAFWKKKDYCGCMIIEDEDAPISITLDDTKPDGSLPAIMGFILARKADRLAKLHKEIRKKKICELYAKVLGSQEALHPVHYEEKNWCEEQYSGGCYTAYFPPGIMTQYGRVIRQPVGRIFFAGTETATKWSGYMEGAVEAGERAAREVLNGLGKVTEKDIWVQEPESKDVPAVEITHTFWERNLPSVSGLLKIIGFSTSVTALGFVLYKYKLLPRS

**Q.** Which IC50 [1] does the source give for `COc1ccc(/C=C/C(=O)Nc2cccc(OCC3CCNCC3)c2)cc1OC` here?
**A.** > 50 µM

**Q.** `COc1cc(/C=C/C(=O)Nc2cccc(OCC3CCNCC3)c2)cc(OC)c1OC` was tested. Which IC50 [1] did it give?
**A.** > 50 µM

**Q.** `COc1cc(/C=C/C(=O)Nc2cccc(OCC3CCNCC3)c2)ccc1O` was tested. Which IC50 (U-87 MG) did it give?
**A.** 31 µM

**Q.** And the IC50 (A549)?
**A.** 24.5 µM

**Q.** `COc1cc(/C=C/C(=O)Nc2ccc(CC(=O)NN)cc2)ccc1O` was tested. Which IC50 (U-87 MG) did it give?
**A.** 49.3 µM

**Q.** And the IC50 (A549)?
**A.** 30.3 µM

**Q.** Which IC50 (U-87 MG) does the source give for `COc1cc(/C=C/C(=O)Nc2ccc(C(=O)NO)cc2)ccc1O` here?
**A.** > 50 µM

**Q.** And the IC50 (A549)?
**A.** 32.5 µM

**Q.** `COc1cc(/C=C/C(=O)Nc2ccc(NC(=N)N)cc2)ccc1O` was tested. Which IC50 (U-87 MG) did it give?
**A.** > 50 µM

**Q.** And the IC50 (A549)?
**A.** > 50 µM

**Q.** With `COc1cc(/C=C/C(=O)Nc2cccc(COc3ccc(OC4CCNCC4)cc3)c2)ccc1O` as the molecule, how does the IC50 (U-87 MG) read?
**A.** > 50 µM

**Q.** What about the IC50 (A549) of the same molecule?
**A.** 28.5 µM

**Q.** `O=C(/C=C/c1ccc(O)cc1)Nc1cccc(OCC2CCNCC2)c1` was tested. Which IC50 [2] did it give?
**A.** > 50 µM

**Q.** What about the IC50 (U-87 MG) of the same molecule?
**A.** > 50 µM

**Q.** What about the IC50 [3] of the same molecule?
**A.** > 50 µM

**Q.** What about the IC50 (A549) of the same molecule?
**A.** 9.33 µM

**Q.** With `N#Cc1ccc(/C=C/C(=O)Nc2cccc(OCC3CCNCC3)c2)cc1` as the molecule, how does the IC50 [1] read?
**A.** > 50 µM

**Q.** `COc1cc(/C=C/C(=O)Nc2ccc(N)cc2)ccc1O` was tested. Which IC50 (U-87 MG) did it give?
**A.** > 50 µM

**Q.** And the IC50 (A549)?
**A.** > 50 µM

**Q.** With `COC(=O)Cc1ccc(NC(=O)/C=C/c2ccc(OC(C)=O)c(OC)c2)cc1` as the molecule, how does the IC50 [1] read?
**A.** > 50 µM

**Q.** With `Cc1ccc(-c2cc(/C=C/C(=O)Nc3cccc(OCC4CCNCC4)c3)ccc2O)cc1` as the molecule, how does the IC50 [1] read?
**A.** > 50 µM

**Q.** Which IC50 [1] does the source give for `O=C(/C=C/c1ccc(F)cc1)Nc1cccc(OCC2CCNCC2)c1` here?
**A.** > 50 µM

**Q.** Which results are given for `COc1cc(/C=C/C(=O)Nc2ccccc2COc2ccc(OC3CCNCC3)cc2)ccc1O`?
**A.** IC50 [2]: > 50 µM; IC50 (U-87 MG): 14.2 µM; IC50 [3]: > 50 µM; IC50 (A549): 4.42 µM

**Q.** `O=C(/C=C/c1cccc(C(F)(F)F)c1)Nc1cccc(OCC2CCNCC2)c1` was tested. Which IC50 [1] did it give?
**A.** > 50 µM

**Q.** Which IC50 [1] does the source give for `COc1cc(/C=C/C(=O)CC(=O)/C=C/c2ccc(O)c(OC)c2)ccc1O` [CURCUMIN] here?
**A.** 9.6 µM
